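Briefly, cells in 96-well plates were exposed to five compound concentrations for 48 h, and endpoints were estimated by linear interpolation. Abbreviation: GI50, concentration required for 50% inhibition of growth. Definition used: TGI = concentration required for complete inhibition of growth.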
Assays:
Experiment in all cases: NCI tumour cell line growth inhibition, 48 h
OVCAR-8 ovarian = tested on: OVCAR-8 ovarian
LOX IMVI melanoma = tested on: LOX IMVI melanoma
K-562 leukemia = tested on: K-562 leukemia
SNB-19 CNS = tested on: SNB-19 CNS
IGROV1 ovarian = tested on: IGROV1 ovarian
COLO 205 colon = tested on: COLO 205 colon
SF-268 CNS = tested on: SF-268 CNS
ACHN renal = tested on: ACHN renal
MDA-MB-435 = tested on: MDA-MB-435
BT-549 breast = tested on: BT-549 breast

Structure (SMILES)	TGI (OVCAR-8 ovarian)	TGI (LOX IMVI melanoma)	TGI (K-562 leukemia)	TGI (SNB-19 CNS)	TGI (IGROV1 ovarian)	TGI (COLO 205 colon)	TGI (SF-268 CNS)	TGI (ACHN renal)	TGI (MDA-MB-435)	TGI (BT-549 breast)	GI50 (ACHN renal)	GI50 (MDA-MB-435)	GI50 (IGROV1 ovarian)	GI50 (BT-549 breast)
O=C(O)c1cn2c3c(cc(N4CCN(CCO)CC4)cc3c1=O)SCC2	> 100 µM	> 100 µM	> 100 µM	> 100 µM	> 100 µM	> 100 µM	> 100 µM							
COc1ccc(/C=c2\sc3n(c2=O)C(N)=C(C#N)C(c2ccc(OC)cc2)C=3c2nc3ccccc3[nH]2)cc1 (centres undefined)		35.2 µM	> 100 µM	> 100 µM	> 100 µM	> 100 µM	> 100 µM	> 100 µM						
Cc1ccc(OC2CC(n3cnc4ncnc(Cl)c43)OC2Oc2ccc(C)cc2)cc1 (centres undefined)	26.8 µM	> 100 µM		42.5 µM	55 µM	46.5 µM	50.1 µM	10.5 µM	> 100 µM	> 100 µM				
COCOc1c(C(O[Si](C)(C)C(C)(C)C)c2cnc(Sc3ccccc3)n2C)ccc(OC)c1OC (centres undefined)	2.74 µM	3.23 µM		6.27 µM	5.01 µM		3.34 µM	6.98 µM	3.26 µM	4.02 µM				
Fc1ccc2nc3n(c2c1)C(c1c(Cl)cccc1Cl)SC3 (centres undefined)	> 100 µM	> 100 µM		> 100 µM	> 100 µM	> 100 µM	> 100 µM	> 100 µM	> 100 µM	> 100 µM				
CCOC(=O)NC(NC1=NCCS1)(C(=O)OCC)C(F)(F)F (centres undefined)	> 100 µM	> 100 µM	> 100 µM	> 100 µM	> 100 µM	> 100 µM	> 100 µM	> 100 µM	> 100 µM					
O=C1/C(=C/c2ccccc2O)N=C(c2ccccc2)N1c1nc2ccccc2s1	72.6 µM	> 100 µM	> 100 µM		> 100 µM		77.7 µM	64.3 µM	> 100 µM					
CCCCCCCCCCCCCC[n+]1ccc2c(C)c3c(c(C)c2c1)c1cc(O)ccc1n3CC					2.06 µM			3.9 µM	1.03 µM	1.46 µM	1.22 µM	0.314 µM	0.496 µM	0.339 µM
Cc1cccnc1/N=C/c1c(O)n(C)c(=O)[nH]c1=O	> 100 µM	> 100 µM		> 100 µM	> 100 µM	> 100 µM	> 100 µM	> 100 µM	> 100 µM	> 100 µM				
CCOC(=O)C1=C(C)N(c2ccc(C)cc2)C2=C(C(=O)N(c3ccccc3)C2c2ccccc2)C1c1ccccc1 (centres undefined)	> 25 µM	> 25 µM	> 25 µM	> 25 µM	> 25 µM	> 25 µM	> 25 µM	> 25 µM						
CNC(=O)N(C)COC	> 100 µM	> 100 µM		> 100 µM	> 100 µM	> 100 µM	> 100 µM	> 100 µM						
CSc1ccc(NC(=S)NN(C)C)cc1	> 10 µM	> 10 µM	> 10 µM	> 10 µM	> 10 µM	> 10 µM	> 10 µM	> 10 µM	> 10 µM					
CCCCCCCCCCCCCC[S+](C)C	3.58 µM	4.34 µM	4.68 µM	2.84 µM	2.33 µM	2.97 µM	3.99 µM	> 10 µM	4.35 µM					
O=C(/C=C/c1ccc(O)c(O)c1)c1cc(O)cc(O)c1	32.8 µM	18.9 µM		28.5 µM	27.5 µM	31.1 µM	42.8 µM	28.9 µM	20.3 µM	24.7 µM				
Cn1c(-c2ccccc2)cc2c3ccsc3c3ccsc3c21	> 100 µM	> 100 µM		> 100 µM	> 100 µM	> 100 µM	> 100 µM	> 100 µM	> 100 µM	> 100 µM				
N#C/C(=C\c1cc(Cl)cc(Cl)c1)c1ccccn1	> 100 µM		> 100 µM	> 100 µM	> 100 µM	> 100 µM	> 100 µM	> 100 µM		48.7 µM				
O=C1/C(=C/c2cccc(Br)c2)CSC/C1=C\c1cccc(Br)c1	9.52 µM	4.82 µM	6.74 µM	10.6 µM	7.11 µM	8.53 µM	24.2 µM	9.88 µM		4.47 µM				
CN1CCC(CN2c3ccccc3Sc3ccccc32)CC1	31.2 µM	26.4 µM	32.3 µM	29.3 µM	30.4 µM	27.1 µM	29 µM	29.7 µM						
CC(=O)OC(CCC1(C)OC1COc1ccc(CCNC(=O)c2ccccc2)cc1)C(C)(C)OC(C)=O (centres undefined)	41.4 µM	> 100 µM	> 100 µM		> 100 µM	58.4 µM	> 100 µM	> 100 µM						
O=c1[nH]c(=O)n(C2CC(O)C(CO)O2)cc1C1=NC1 (centres undefined)	> 100 µM			> 100 µM	> 100 µM	> 100 µM	> 100 µM	> 100 µM	> 100 µM	> 100 µM				

Reference: PubChem BioAssay (NCI)
